{"source": "patent US20130274104A1", "about": "“AGROCHEMICAL MIXTURES FOR INCREASING THE HEALTH OF A PLANT” (BASF SE, priority 2010, published 2013)", "type_in_all_cases": "in vivo", "key": {"Maize (corn)": {"test_system": "Maize (corn)", "experiment": "Maize field trials 2009, grain yield as indicator of plant health", "settings": "BBCH 55/57; for Yield (kg/ha): seven US locations", "protocol": "Maize (corn) was grown in 2009 at seven locations in the U.S.A: Wyoming, Ill., Carlyle, Ill., Sparta, Ill., Manilla, Iowa, Blue Earth, Minn., Aurora, Nebr., and Tekamah, Nebr. The maize crop was planted at the local standard seeding rate with local standard row spacing. Each trial was set up as randomized complete block design with 8 replications. Plots consisted of 6-8 rows with the center two rows treated and harvested. Harvested plot size was at minimum 18.48 m^2.\nThe active ingredients were used as formulations. The formulations were used in the dose rates given below. The products were applied at tassel emergence (BBCH 55/57). […] The untreated control plots were treated with water only.\nGrain yield (kg per ha) as an indicator for the health of a plant was assessed by harvesting the plants in the center rows of a plot (table 1). The efficacy was calculated as % increase of yield in the treatments compared to the untreated control using the following formula:\n(§1) E=a/b−1•100 • a corresponds to the grain yield of the treated plants in kg/ha and • b corresponds to the grain yield of the untreated (control) plants in kg/ha"}, "Soybeans [1]": {"test_system": "Soybeans", "experiment": "Soybean leaf chlorophyll content, FIELD SCOUT CM1000 chlorophyll meter, Sparta, Ill.", "settings": "Harpinαβ 70 g/ha, Pyraclostrobin 0.44 l/ha", "protocol": "(§2) Soybeans were grown in 2009 at eight locations in the U.S.A.: Jefferson, I A, Seymour, Ill., Sparta, Ill., Wyoming, Ill., Sheridan, Ind., Ozora, Mo., York, Nebr., and Centerville, S. Dak. The soybeans were planted at the local standard seeding rate with local standard row spacing. Each trial was setup as randomized complete block design with 6 replications. Plots consisted of 4 rows with the center two rows treated and harvested. Harvested plot size was minimum 15 m^2.\nThe active ingredients were used as formulations. The formulations were used in the dose rates given below. The products were applied when the soybeans had developed four to six trifoliates. Pyraclostrobin (compound A) was applied once as HEADLINE® (250 g active per liter; EC formulation) with a product rate of 0.44 I/ha.\nThe harpinαβ peptide (compound B) was applied as the experimental WG formulation EBC-351 (1% active ingredient) with a product rate of 70 g/ha. The mixture comprising pyraclostrobin and harpinαβ as shown in table 2 below was applied as a tankmix of both formulations.\nAt the Sparta, Ill., location, the chlorophyll content (a well known indicator of the health of a plant) of 5 plants in a plot was measured with a FIELD SCOUT CM1000™ (Spectrum Technologies, Plainfield, Ill.) chlorophyll meter. Values were reported as a mean value per plot. The FIELD SCOUT CM1000™ senses light at wavelengths of 700 nm and 840 nm to estimate quantity of chlorophyll in leaves. The ambient and reflected light at each wavelength is measured. Light absorbtion at 700 nm by chlorophyll reduces the reflection at this wavelength whereas the light at 840 nm is unaffected and serves as an indication of light reflection due to physical characteristics of the leaf like a hairy leaf surface. Subsequently, a chlorophyll index value (0-999) is calculated from the measured ambient and reflected light data.\nBased on the index values the efficacy of the treatments were calculated as described for the grain yield above. Similarly, the expected efficacy was estimated using Colby's formula as described above."}, "Soybeans [2]": {"test_system": "Soybeans", "experiment": "Soybean field trials 2009, grain yield as indicator of plant health", "protocol": "as §2\nThe active ingredients were used as formulations. The formulations were used in the dose rates given below. The products were applied when the soybeans had developed four to six trifoliates.\nThe mixture comprising pyraclostrobin and harpinαβ as shown in table 2 below was applied as a tankmix of both formulations.\nGrain yield (kg per ha) was assessed as an indicator of plant health (table 2) by harvesting the plants in the center rows of a plot. The efficacy was calculated as % increase of yield in the treatments compared to the untreated control:\nas §1"}}}
{"smiles": "COC(=O)N(OC)c1ccccc1COc1ccn(-c2ccc(Cl)cc2)n1", "note": "[Pyraclostrobin]", "values": [{"measurement": "OE [%] (Observed efficacy, % increase of yield compared to the untreated control)", "setting": "Maize (corn); Harpinαβ 35 g/ha, Pyraclostrobin 0.3 l/ha, alone or combined", "value": 1.10, "unit": "%"}, {"measurement": "OE [%] (Observed efficacy, % increase of yield compared to the untreated control)", "setting": "Maize (corn); Pyraclostrobin 0.6 l/ha, Harpinαβ 35 g/ha in the combination", "value": 0.10, "unit": "%"}, {"measurement": "Yield (kg/ha)", "setting": "Maize (corn); product rates Harpinαβ 35 g/ha (1%), Pyraclostrobin 0.3 l/ha (250 g/l), alone or combined", "value": 13218.9, "unit": "kg/ha"}, {"measurement": "Yield (kg/ha)", "setting": "Maize (corn); product rates Pyraclostrobin 0.6 l/ha (250 g/l), Harpinαβ 35 g/ha (1%) in the combination", "value": 13087.1, "unit": "kg/ha"}, {"measurement": "effect on leaf chlorophyll content, in words", "setting": "Soybeans [1]", "value": "increases the chlorophyll content"}, {"measurement": "OE [%] (Observed efficacy, chlorophyll index compared to the untreated control)", "setting": "Soybeans [1]; Sparta, Ill.", "value": 14.13, "unit": "%"}, {"measurement": "CC [0-999] (Chlorophyll Content, chlorophyll index value)", "setting": "Soybeans [1]; Sparta, Ill., mean value per plot, 5 plants", "value": 773.50}, {"measurement": "OE [%] (Observed efficacy, % increase of yield compared to the untreated control)", "setting": "Soybeans [2]; Harpinαβ 70 g/ha, Pyraclostrobin 0.44 l/ha, average of all trials", "value": 0.1, "unit": "%"}, {"measurement": "effect on grain yield, in words", "setting": "Soybeans [2]; Pyraclostrobin 0.44 l/ha applied at early soybean development", "value": "did not increase the grain yield on an average"}, {"measurement": "Yield (kg/ha)", "setting": "Soybeans [2]; product rates Harpinαβ 70 g/ha (1%), Pyraclostrobin 0.44 l/ha (250 g/l), four to six trifoliates, eight US locations", "value": 3319, "unit": "kg/ha"}]}
